{"source": "patent US6355799B1", "about": "“Substituted benzene compounds, process for their preparation, and herbicidal and defoliant compositions containing them” (ISK Americas Incorporated, priority 1997, dated 2002)", "assay_type_in_all_cases": "in vivo", "key": {"[1]": {"system": "redroot pigweed (Amaranthus retroflexus, AMARE)", "assay": "Pre-emerge test, greenhouse herbicide activity screening", "settings": "pre-emerge, rated 14 days after application, 0 = no damage, 100 = complete death", "how_it_was_run": "(§1)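 Compounds in acetone were track-sprayed at 15-1000 g ai/ha (187 l/ha) on sandy loam pots: pre-emerge one day after seeding, post-emerge at 2-3 leaf stage with 0.25% v/v non-ionic surfactant. Phytotoxicity was rated 14 days later on a 0 (no damage) to 100 (complete death) scale.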"}, "[2]": {"system": "barnyardgrass (Echinochloa crus-galli, ECHCG)", "assay": "Pre-emerge test, greenhouse herbicide activity screening", "settings": "pre-emerge, rated 14 days after application, 0 = no damage, 100 = complete death", "how_it_was_run": "(§2)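 Fourteen days after spraying, crop and weed injury was graded visually from 0, no effect, to 100, every plant dead. Test substances were dissolved in acetone and applied at 15–1000 g ai/ha with a flat-fan nozzle. Application was either pre-emergence, one day after sowing, or post-emergence at the 2–3 leaf stage.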"}, "[3]": {"system": "green foxtail (Setaria viridis, SETVI)", "assay": "Pre-emerge test, greenhouse herbicide activity screening", "settings": "pre-emerge, rated 14 days after application, 0 = no damage, 100 = complete death", "how_it_was_run": "as §2"}, "[4]": {"system": "ivyleaf morningglory (Ipomoea hederacea, IPOHE)", "assay": "Pre-emerge test, greenhouse herbicide activity screening", "settings": "pre-emerge, rated 14 days after application, 0 = no damage, 100 = complete death", "how_it_was_run": "as §2"}, "[5]": {"system": "johnsongrass (Sorghum halepense, SORHA)", "assay": "Pre-emerge test, greenhouse herbicide activity screening", "settings": "pre-emerge, rated 14 days after application, 0 = no damage, 100 = complete death", "how_it_was_run": "as §2"}, "[6]": {"system": "lambsquarters (Chenopodium album, CHEAL)", "assay": "Pre-emerge test, greenhouse herbicide activity screening", "settings": "pre-emerge, rated 14 days after application, 0 = no damage, 100 = complete death", "how_it_was_run": "as §2"}, "[7]": {"system": "large crabgrass (Digitaria sanguinalis, DIGSA)", "assay": "Pre-emerge test, greenhouse herbicide activity screening", "settings": "pre-emerge, rated 14 days after application, 0 = no damage, 100 = complete death", "how_it_was_run": "as §2"}, "[8]": {"system": "sicklepod (Cassia obtusifolia, CASOB)", "assay": "Pre-emerge test, greenhouse herbicide activity screening", "settings": "pre-emerge, rated 14 days after application, 0 = no damage, 100 = complete death", "how_it_was_run": "as §2"}, "[9]": {"system": "velvetleaf (Abutilon theophrasti, ABUTH)", "assay": "Pre-emerge test, greenhouse herbicide activity screening", "settings": "pre-emerge, rated 14 days after application, 0 = no damage, 100 = complete death", "how_it_was_run": "as §2"}, "[10]": {"system": "field corn (Zea mays L., var. Dekalb 535, CORN)", "assay": "Pre-emerge test, crop safety", "settings": "63 g ai/ha; pre-emerge; rated 14 days after application; 0 = no damage, 100 = complete death", "how_it_was_run": "(§3)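 Plants grown in 10 cm pots of sandy loam mix received acetone-dissolved compounds through a moving flat-fan nozzle. Doses ranged from 15 to 1000 g ai/ha. Pre-emerge pots were seeded one day earlier, post-emerge pots 8–21 days earlier. Fourteen days on, each pot was graded 0–100 for damage.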"}, "[11]": {"system": "upland rice (Oryza sp., var. Tebonnet, RICE)", "assay": "Pre-emerge test, crop safety", "settings": "pre-emerge, rated 14 days after application, 0 = no damage, 100 = complete death", "how_it_was_run": "as §3"}, "[12]": {"system": "barnyardgrass (Echinochloa crus-galli, ECHCG)", "assay": "Post-emerge test, greenhouse herbicide activity screening", "settings": "phytotoxicity rating 0-100 (0 no damage, 100 complete death), 14 days after application", "how_it_was_run": "as §1"}, "[13]": {"system": "green foxtail (Setaria viridis, SETVI)", "assay": "Post-emerge test, greenhouse herbicide activity screening", "settings": "phytotoxicity rating 0-100 (0 no damage, 100 complete death), 14 days after application", "how_it_was_run": "as §1"}, "[14]": {"system": "ivyleaf morningglory (Ipomoea hederacea, IPOHE)", "assay": "Post-emerge test, greenhouse herbicide activity screening", "settings": "phytotoxicity rating 0-100 (0 no damage, 100 complete death), 14 days after application", "how_it_was_run": "as §1"}, "[15]": {"system": "johnsongrass (Sorghum halepense, SORHA)", "assay": "Post-emerge test, greenhouse herbicide activity screening", "settings": "phytotoxicity rating 0-100 (0 no damage, 100 complete death), 14 days after application", "how_it_was_run": "as §1"}, "[16]": {"system": "lambsquarters (Chenopodium album, CHEAL)", "assay": "Post-emerge test, greenhouse herbicide activity screening", "settings": "phytotoxicity rating 0-100 (0 no damage, 100 complete death), 14 days after application", "how_it_was_run": "as §1"}, "[17]": {"system": "large crabgrass (Digitaria sanguinalis, DIGSA)", "assay": "Post-emerge test, greenhouse herbicide activity screening", "settings": "phytotoxicity rating 0-100 (0 no damage, 100 complete death), 14 days after application", "how_it_was_run": "as §1"}, "[18]": {"system": "redroot pigweed (Amaranthus retroflexus, AMARE)", "assay": "Post-emerge test, greenhouse herbicide activity screening", "settings": "phytotoxicity rating 0-100 (0 no damage, 100 complete death), 14 days after application", "how_it_was_run": "as §1"}, "[19]": {"system": "sicklepod (Cassia obtusifolia, CASOB)", "assay": "Post-emerge test, greenhouse herbicide activity screening", "settings": "phytotoxicity rating 0-100 (0 no damage, 100 complete death), 14 days after application", "how_it_was_run": "as §1"}, "[20]": {"system": "velvetleaf (Abutilon theophrasti, ABUTH)", "assay": "Post-emerge test, greenhouse herbicide activity screening", "settings": "phytotoxicity rating 0-100 (0 no damage, 100 complete death), 14 days after application", "how_it_was_run": "as §1"}, "[21]": {"system": "field corn (Zea mays L., var. Dekalb 535, CORN)", "assay": "Post-emerge test, crop safety", "settings": "phytotoxicity rating 0-100 (0 no damage, 100 complete death), 14 days after application", "how_it_was_run": "as §2"}, "[22]": {"system": "upland rice (Oryza sp., var. Tebonnet, RICE)", "assay": "Post-emerge test, crop safety", "settings": "phytotoxicity rating 0-100 (0 no damage, 100 complete death), 14 days after application", "how_it_was_run": "as §2"}}}
{"smiles": "C=C(C)C(=O)Nc1c(OC)c(Cl)cc(F)c1-n1c(=O)cc(C(F)(F)F)n(C)c1=O", "note": "[2-5]", "values": [{"measurement": "Pre-emerge Herbicidal Activity AMARE (phytotoxicity rating, scale 0-100)", "setting": "[1]; 63 g ai/ha", "value": 90}, {"measurement": "Pre-emerge Herbicidal Activity AMARE (phytotoxicity rating, scale 0-100)", "setting": "[1]; 250 g ai/ha", "value": 100}, {"measurement": "Pre-emerge Herbicidal Activity ECHCG (phytotoxicity rating, scale 0-100)", "setting": "[2]; 63 g ai/ha", "value": 10}, {"measurement": "Pre-emerge Herbicidal Activity ECHCG (phytotoxicity rating, scale 0-100)", "setting": "[2]; 250 g ai/ha", "value": 90}, {"measurement": "Pre-emerge Herbicidal Activity SETVI (phytotoxicity rating, scale 0-100)", "setting": "[3]; 63 g ai/ha", "value": 100}, {"measurement": "Pre-emerge Herbicidal Activity SETVI (phytotoxicity rating, scale 0-100)", "setting": "[3]; 250 g ai/ha", "value": 100}, {"measurement": "Pre-emerge Herbicidal Activity IPOHE (phytotoxicity rating, scale 0-100)", "setting": "[4]; 63 g ai/ha", "value": 90}, {"measurement": "Pre-emerge Herbicidal Activity IPOHE (phytotoxicity rating, scale 0-100)", "setting": "[4]; 250 g ai/ha", "value": 100}, {"measurement": "Pre-emerge Herbicidal Activity SORHA (phytotoxicity rating, scale 0-100)", "setting": "[5]; 63 g ai/ha", "value": 60}, {"measurement": "Pre-emerge Herbicidal Activity SORHA (phytotoxicity rating, scale 0-100)", "setting": "[5]; 250 g ai/ha", "value": 90}, {"measurement": "Pre-emerge Herbicidal Activity CHEAL (phytotoxicity rating, scale 0-100)", "setting": "[6]; 63 g ai/ha", "value": 100}, {"measurement": "Pre-emerge Herbicidal Activity CHEAL (phytotoxicity rating, scale 0-100)", "setting": "[6]; 250 g ai/ha", "value": 100}, {"measurement": "Pre-emerge Herbicidal Activity DIGSA (phytotoxicity rating, scale 0-100)", "setting": "[7]; 63 g ai/ha", "value": 50}, {"measurement": "Pre-emerge Herbicidal Activity DIGSA (phytotoxicity rating, scale 0-100)", "setting": "[7]; 250 g ai/ha", "value": 95}, {"measurement": "Pre-emerge Herbicidal Activity CASOB (phytotoxicity rating, scale 0-100)", "setting": "[8]; 63 g ai/ha", "value": 40}, {"measurement": "Pre-emerge Herbicidal Activity CASOB (phytotoxicity rating, scale 0-100)", "setting": "[8]; 250 g ai/ha", "value": 100}, {"measurement": "Pre-emerge Herbicidal Activity ABUTH (phytotoxicity rating, scale 0-100)", "setting": "[9]; 63 g ai/ha", "value": 100}, {"measurement": "Pre-emerge Herbicidal Activity ABUTH (phytotoxicity rating, scale 0-100)", "setting": "[9]; 250 g ai/ha", "value": 100}, {"measurement": "Pre-emerge crop damage CORN (phytotoxicity rating, scale 0-100)", "setting": "[10]", "value": 10}, {"measurement": "Pre-emerge crop damage RICE (phytotoxicity rating, scale 0-100)", "setting": "[11]; 63 g ai/ha", "value": 70}, {"measurement": "Pre-emerge crop damage RICE (phytotoxicity rating, scale 0-100)", "setting": "[11]; 250 g ai/ha", "value": 80}, {"measurement": "Post-emerge Herbicidal Activity ECHCG", "setting": "[12]; 63 g ai/ha", "value": 0}, {"measurement": "Post-emerge Herbicidal Activity ECHCG", "setting": "[12]; 250 g ai/ha", "value": 0}, {"measurement": "Post-emerge Herbicidal Activity SETVI", "setting": "[13]; 63 g ai/ha", "value": 0}, {"measurement": "Post-emerge Herbicidal Activity SETVI", "setting": "[13]; 250 g ai/ha", "value": 0}, {"measurement": "Post-emerge Herbicidal Activity IPOHE", "setting": "[14]; 63 g ai/ha", "value": 50}, {"measurement": "Post-emerge Herbicidal Activity IPOHE", "setting": "[14]; 250 g ai/ha", "value": 90}, {"measurement": "Post-emerge Herbicidal Activity SORHA", "setting": "[15]; 63 g ai/ha", "value": 0}, {"measurement": "Post-emerge Herbicidal Activity SORHA", "setting": "[15]; 250 g ai/ha", "value": 30}, {"measurement": "Post-emerge Herbicidal Activity CHEAL", "setting": "[16]; 63 g ai/ha", "value": 40}, {"measurement": "Post-emerge Herbicidal Activity CHEAL", "setting": "[16]; 250 g ai/ha", "value": 70}, {"measurement": "Post-emerge Herbicidal Activity DIGSA", "setting": "[17]; 63 g ai/ha", "value": 0}, {"measurement": "Post-emerge Herbicidal Activity DIGSA", "setting": "[17]; 250 g ai/ha", "value": 0}, {"measurement": "Post-emerge Herbicidal Activity AMARE", "setting": "[18]; 63 g ai/ha", "value": 20}, {"measurement": "Post-emerge Herbicidal Activity AMARE", "setting": "[18]; 250 g ai/ha", "value": 40}, {"measurement": "Post-emerge Herbicidal Activity CASOB", "setting": "[19]; 63 g ai/ha", "value": 10}, {"measurement": "Post-emerge Herbicidal Activity CASOB", "setting": "[19]; 250 g ai/ha", "value": 50}, {"measurement": "Post-emerge Herbicidal Activity ABUTH", "setting": "[20]; 63 g ai/ha", "value": 90}, {"measurement": "Post-emerge Herbicidal Activity ABUTH", "setting": "[20]; 250 g ai/ha", "value": 100}, {"measurement": "Post-emerge Herbicidal Activity CORN (crop damage)", "setting": "[21]; 63 g ai/ha", "value": 5}, {"measurement": "Post-emerge Herbicidal Activity CORN (crop damage)", "setting": "[21]; 250 g ai/ha", "value": 10}, {"measurement": "Post-emerge Herbicidal Activity RICE (crop damage)", "setting": "[22]; 63 g ai/ha", "value": 30}, {"measurement": "Post-emerge Herbicidal Activity RICE (crop damage)", "setting": "[22]; 250 g ai/ha", "value": 40}]}
